From patent US6762186B2, “Substituted imidazoles as dual histamine H1 and H3 agonists or antagonists” (Schering Corporation, priority 2000, dated 2004)

Columns and labels:
[1] = target: T1, histamine H1 receptor (Rattus norvegicus, UniProt P31390); experiment: H1-Receptor Binding Assay ([3H]pyrilamine, rat brain membranes); details: for Ki: Cheng-Prusoff from IC50, HCl salt; for inhibition at 1 µg/mL: HCl salt
T1 construct: The tissue source was male Sprague-Dawley rat brain; tissue Rockland Corporation, Gilbertsville, Pa; host or cells: male Sprague-Dawley rat brain membranes
T1 sequence (P31390 whole entry): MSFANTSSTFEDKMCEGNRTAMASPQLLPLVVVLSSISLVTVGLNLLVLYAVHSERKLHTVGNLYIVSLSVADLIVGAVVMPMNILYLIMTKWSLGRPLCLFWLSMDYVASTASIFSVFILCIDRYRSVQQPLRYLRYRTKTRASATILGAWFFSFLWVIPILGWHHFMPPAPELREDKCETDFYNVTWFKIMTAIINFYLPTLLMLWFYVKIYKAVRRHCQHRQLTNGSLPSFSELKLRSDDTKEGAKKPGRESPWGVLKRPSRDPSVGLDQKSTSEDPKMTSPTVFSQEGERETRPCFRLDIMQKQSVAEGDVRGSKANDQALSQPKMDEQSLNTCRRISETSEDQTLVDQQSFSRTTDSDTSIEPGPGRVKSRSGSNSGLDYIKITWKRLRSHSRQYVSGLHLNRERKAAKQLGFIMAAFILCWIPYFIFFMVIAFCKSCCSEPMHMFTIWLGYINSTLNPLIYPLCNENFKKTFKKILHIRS
From the text: General Procedure for H1-Receptor Binding Assay
The procedure used was based on that disclosed in V. T. Tran et al, “Histamine H1 receptors identified in mammalian brain membranes with [H-3]mepyramine”, Proc. Natl. Acad. Sci. U.S.A. 75 (1978) 6290-6294.
I. Tissue preparation protocol for histamine H1 receptor binding assay:
1. The tissue source was male Sprague-Dawley rat brain. These were purchased stripped and frozen (available from Rockland Corporation, Gilbertsville, Pa.). The buffer used was ice-cold 50 mM Tris-HCl, pH 7.5. (The pH was determined at 25° C.)
2. The brains were spread out on plastic wrap on the benchtop and allowed to thaw for 10-15 min. After this, everything was kept ice-cold.
3. Two brains were put in each 50 ml round bottom centrifuge tube and 25 ml of buffer was added. Then they were broken up with a Polytron (from Brinkmann Instruments, Westbury, N.Y.) equipped with a PT-10 tip at setting 6 for 30 sec.
4. The volume in the tube was brought up to 45 ml and mixed and the particulate material was centrifuged at 1000×g (3000 rpm, SS-34 rotor) for 10 min to remove nuclei and unbroken cells.
5. Pellets were discarded and the supernatants were centrifuged 10 min at 50,000×g (20,000 rpm, SS-34 rotor).
6. The high-speed pellets were resuspended in a volume of Tris buffer equal to the original ([…]), the contents of all tubes were pooled, and a sample was taken for BCA protein assay. The material was aliquotted, 45 ml per round-bottom tube, and the resuspension was recentrifuged. The yield of protein was approximately 20 mg/brain, so there was about 40 mg of protein per tube.
7. Pellets were frozen at −80° C.
II. H1 Histamine receptor binding assay:
1. The compounds for assay were independently solubilized at 1 mg/ml DMSO by vortexing, or if necessary by sonication. The first dilution, 100-fold, was made in 50 mM Tris-HCl, pH 7.5, at room temperature. The three or four subsequent ten-fold serial dilutions were made in 1% DMSO/50 mM Tris-HCl, pH 7.5. Drug solutions and assay plates were kept at room temperature during the course of the assay set up.
2. Test compounds were assayed at four or five concentrations: 1, 0.1, 0.01, 0.001, and 0.0001 μg/ml. Twenty μl of drug solution was pipeted into each of three wells.
3. [^3H]Pyrilamine was diluted approximately 2000-fold with ice-cold […] Tris-HCl, pH 7.5 (to a working concentration of 20-25 nM), and put on ice.
4. A frozen tissue pellet was thawed in a 25° C. water bath, resuspended in 50 mM Tris-HCl, pH 7.5, at 1.7-2 mg/ml by brief break-up on the Polytron, and put on ice.
5. Twenty μl of diluted [^3H]pyrilamine was added to each well.
6. One hundred fifty μl of tissue suspension was added to each well.
7. The top of the plate was covered and it was placed in a 25° C. shaking water bath (about 60 oscillations/min) for 30 min.
8. Samples were filtered on a Tomtec Mach 2 harvester (available from Tomtec Corporation, Orange, Conn.) through a GF/B filter mat (from Wallac, Inc., Gaithersburg, Md.) presoaked in 0.3% polyethylenimine. Each sample was thrice washed with ice-cold 50 mM Tris-HCl, pH 7.5 dried 20 sec on the Tomtec, and dried 3-4 min in a microwave oven on a paper towel. The filter was impregnated with MELTILEX brand wax scintillant (from Wallac Corporation) and counted on a Betaplate scintillation counter (from Wallac Corporation).
9. Specific binding was determined as the difference between total and nonspecific binding. The percent inhibition in the presence of inhibitor or standard was determined using the formula:
[1-(sample binding-nonspecific binding)/specific binding]×100
For compounds that inhibit more than 50% at 1 μg/ml, an IC50 value was interpolated from proximate concentrations. […]

[2] = target: T2, H3 receptors (Cavia porcellus, UniProt Q9JI35); experiment: H3-Receptor Binding Assay ([3H]R-α-methyl histamine or [3H]Nα-methyl histamine, guinea pig brain membranes); details: for Ki: HCl salt of the indicated compounds; for inhibition at 2 µg/mL: final concentration 2 μg/ml, HCl salt
T2 construct: The source of the H3 receptors in this experiment was guinea pig brain; from tissue; host or cells: guinea pig brain membranes
T2 sequence (Q9JI35 whole entry): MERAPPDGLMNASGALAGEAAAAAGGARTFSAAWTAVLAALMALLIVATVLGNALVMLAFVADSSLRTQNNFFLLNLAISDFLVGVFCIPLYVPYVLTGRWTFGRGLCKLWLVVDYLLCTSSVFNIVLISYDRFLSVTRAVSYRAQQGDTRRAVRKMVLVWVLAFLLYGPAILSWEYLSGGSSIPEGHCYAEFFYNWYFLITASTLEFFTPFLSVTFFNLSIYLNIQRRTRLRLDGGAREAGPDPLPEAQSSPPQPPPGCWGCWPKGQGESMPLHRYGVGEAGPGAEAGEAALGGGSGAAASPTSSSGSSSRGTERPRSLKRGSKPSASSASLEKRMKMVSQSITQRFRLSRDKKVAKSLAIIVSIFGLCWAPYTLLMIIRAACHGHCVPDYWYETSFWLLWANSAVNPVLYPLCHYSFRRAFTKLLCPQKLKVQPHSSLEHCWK
Experimental: General Procedure for H3-Receptor Binding Assay
The source of the H3 receptors in this experiment was guinea pig brain. The animals weighed 400-600 g. The brain tissue was homogenized with a solution of 50 mM Tris, pH 7.5. The final concentration of tissue in the homogenization buffer was 10% w/v. The homogenates were centrifuged at 1,000×g for 10 min. in order to remove clumps of tissue and debris. The resulting supernatants were then centrifuged at 50,000×g for 20 min. in order to sediment the membranes, which were next washed three times in homogenization buffer (50,000×g for 20 min. each). The membranes were frozen and stored at −70° C. until needed.
All compounds to be tested were dissolved in DMSO and then diluted into the binding buffer (50 mM Tris, pH 7.5) such that the final concentration was 2 μg/ml with 0.1% DMSO. Membranes were then added (400 μg of protein) to the reaction tubes. The reaction was started by the addition of 3 nM [^3H]R-α-methyl histamine (8.8 Ci/mmol) or 3 nM [^3H]N^α-methyl histamine (80 Ci/mmol) and continued under incubation at 30° C. for 30 min. Bound ligand was separated from unbound ligand by filtration, and the amount of radioactive ligand bound to the membranes was quantitated by liquid scintillation spectrometry. All incubations were performed in duplicate and the standard error was always less than 10%. Compounds that inhibited more than 70% of the specific binding of radioactive ligand to the receptor were serially diluted to determine a Ki (nM). The results are given in Table 1 for the HCl salt of the indicated compounds.

Compound	Ki [1] [nM]	Ki [2] [nM]	inhibition at 1 µg/mL [1] [%]	inhibition at 2 µg/mL [2] [%]
O=C(COCCN1CCN(C(c2ccccc2)c2ccc(Cl)cc2)CC1)NCCCCc1c[nH]cn1 (stereo not shown)	11	39		
O=C(C(c1ccc(Cl)cc1)c1ccc(Cl)cc1)N1CCC(CCc2c[nH]cn2)C1 (stereo not shown)		9.5	2	
Clc1ccc(C(c2ccccc2)N2CCN(Cc3c[nH]cn3)CC2)cc1 (stereo not shown)	1.7	101		
O=C(CC(c1ccc(Cl)cc1)c1ccccn1)N1CCN(CCCCc2c[nH]cn2)CC1 (stereo not shown)		32	14	
O=C(C(c1ccccc1)c1ccccc1)N1CCC(Cc2c[nH]cn2)CC1	50	66		
c1ccc(C(c2ccccc2)C2CCN(CCCCCc3c[nH]cn3)CC2)cc1	28	19		
O=C(CC(c1ccc(Cl)cc1)c1ccccn1)N1CCC(Cc2c[nH]cn2)CC1 (stereo not shown)	19	0.3		
Clc1ccc(C(c2ccccn2)N2CCN(Cc3c[nH]cn3)CC2)cc1 (stereo not shown)	5	73		
Clc1ccc(C(=C2CCN(CCCCc3c[nH]cn3)CC2)c2ccccn2)cc1	4.5	3		
Clc1ccc(C(CN2CCC(CCc3c[nH]cn3)C2)c2ccc(Cl)cc2)cc1 (stereo not shown)		25	18	
Clc1ccc(C(CCN2CCN(Cc3c[nH]cn3)CC2)c2ccccn2)cc1 (stereo not shown)	25	130		
Clc1ccc(C(=C2CCN(CCCCCc3c[nH]cn3)CC2)c2ccccn2)cc1	4.5	8		
c1ccc(C(CCN2CCN(Cc3c[nH]cn3)CC2)c2ccccc2)cc1	80			62
Clc1ccc(C(c2ccccn2)N2CCN(CCCCCCCNCCCCc3c[nH]cn3)CC2)cc1 (stereo not shown)	18.5	21		
Clc1ccc(C(CCN2CCN(CCCCc3c[nH]cn3)CC2)c2ccccn2)cc1 (stereo not shown)	21	7		
O=C(CC(c1ccccc1)c1ccccc1)N1CCN(Cc2c[nH]cn2)CC1				15
Clc1ccc(C(c2ccccn2)N2CCN(CCCCc3c[nH]cn3)CC2)cc1 (stereo not shown)	5	39		
Clc1ccc(C(=C2CCN(CCCCCCc3c[nH]cn3)CC2)c2ccccn2)cc1	3	11		
Clc1ccc(C(c2ccccn2)N2CCN(CCCc3c[nH]cn3)CC2)cc1 (stereo not shown)	40	66		
